Measured values as given in PubChem BioAssay AID1259411 (Chemical Carcinogenesis Research Information System (CCRIS), 2018).
Calls of active or inactive are those of the source. The rule behind the calls is not given here.

Tested on: rodent carcinogenicity bioassays, tumor incidence
Experiment: CCRIS carcinogenicity studies
How it was run: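 NCI-built, expert-reviewed records of carcinogenicity and related test outcomes (mutagenicity, tumor promotion/inhibition) compiled from published and report sources, historical span 1985-2011, not updated.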

O=C(O)C(Cl)Cl
carcinogen call (Species: MOUSE, Strain/Sex: B6C3F1/FEMALE, Route: ORAL, Dose: 0, 2, 6.67, 20 MMOL/L IN DRINKING WATER FOR 360 D (STUDY DURATION: 360 D), Dose: 0, 2, 6.67, 20 MMOL/L IN DRINKING WATER FOR 360 D (STUDY DURATION: 360 D), Tumor Site: Type of Lesion: LIVER: ADENOMA): active; positive | carcinogen call (Species: MOUSE, Strain/Sex: B6C3F1/FEMALE, Route: ORAL, Dose: 0, 2, 6.67, 20 MMOL/L IN DRINKING WATER FOR 576 D (STUDY DURATION: 576 D), Dose: 0, 2, 6.67, 20 MMOL/L IN DRINKING WATER FOR 576 D (STUDY DURATION: 576 D), Tumor Site: Type of Lesion: LIVER: ADENOMA, CARCINOMA): active; positive | carcinogen call (Species: MOUSE, Strain/Sex: B6C3F1/FEMALE, Route: ORAL, Dose: 0, 2 G/L (TOTAL DOSE) IN DRINKING WATER FOR 52 WK (STUDY DURATION: 52 WK)): inactive; negative | carcinogen call (Species: MOUSE, Strain/Sex: B6C3F1/FEMALE, Route: ORAL, Dose: 0, 20 MMOL/L IN DRINKING WATER FOR 24 D FOLLOWED BY 48 D WITHOUT EXPOSURE THIS 72-DAY CYCLE REPEATED FOR THE DURATION OF): inactive; negative | carcinogen call (Species: MOUSE, Strain/Sex: B6C3F1/MALE, Route: ORAL, Dose: 0, 0.5, 1.0, 2, 3.5 G/L IN DRINKING WATER FOR 26 WK (STUDY DURATION: 26 WK), Dose: 0, 0.5, 1.0, 2, 3.5 G/L IN DRINKING WATER FOR 26 WK (STUDY DURATION: 26 WK)): inactive; negative | carcinogen call (Species: MOUSE, Strain/Sex: B6C3F1/MALE, Route: ORAL, Dose: 0, 0.5, 1.0, 2, 3.5 G/L IN DRINKING WATER FOR 52 WK (STUDY DURATION: 52 WK), Dose: 0, 0.5, 1.0, 2, 3.5 G/L IN DRINKING WATER FOR 52 WK (STUDY DURATION: 52 WK), Tumor Site: Type of Lesion: LIVER: HEPATOCELLULAR ADENOMA OR CARCINOMA): active; positive | carcinogen call (Species: MOUSE, Strain/Sex: B6C3F1/MALE, Route: ORAL, Dose: 0, 0.5, 1.0, 2, 3.5 G/L IN DRINKING WATER FOR 78 WK (STUDY DURATION: 78 WK), Dose: 0, 0.5, 1.0, 2, 3.5 G/L IN DRINKING WATER FOR 78 WK (STUDY DURATION: 78 WK), Tumor Site: Type of Lesion: LIVER: HEPATOCELLULAR ADENOMA OR CARCINOMA): active; positive | carcinogen call (Species: MOUSE, Strain/Sex: B6C3F1/MALE, Route: ORAL, Dose: 0, 0.5, 1.0, 2, 3.5 G/L IN DRINKING WATER FOR 100 WK (STUDY DURATION: 100 WK), Dose: 0, 0.5, 1.0, 2, 3.5 G/L IN DRINKING WATER FOR 100 WK (STUDY DURATION: 100 WK), Tumor Site: Type of Lesion: LIVER: HEPATOCELLULAR ADENOMA OR CARCINOMA): active; positive | carcinogen call (Species: MOUSE, Strain/Sex: B6C3F1/MALE, Route: ORAL, Dose: 0, 0.5 G/L DISTILLED DRINKING WATER FOR STUDY DURATION (93 MG/KG/D) (STUDY DURATION: 104 WK), Tumor Site: Type of Lesion: LIVER: HEPATOCELLULAR CARCINOMA, HEPATOCELLULAR ADENOMA): active; positive | carcinogen call (Species: MOUSE, Strain/Sex: B6C3F1/MALE, Route: ORAL, Dose: 0, 1, 2 G/L IN DRINKING WATER FOR 52 WK (STUDY DURATION: 52 WK), Dose: 0, 1, 2 G/L IN DRINKING WATER FOR 52 WK (STUDY DURATION: 52 WK), Tumor Site: Type of Lesion: LIVER: ADENOMA OR HEPATOCELLULAR CARCINOMA): active; positive | carcinogen call (Species: MOUSE, Strain/Sex: B6C3F1/MALE, Route: ORAL, Dose: 0, 1 G, 2 G/L (TOTAL DOSE) IN DRINKING WATER FOR 52 WK (STUDY DURATION: 52 WK), Dose: 0, 1 G, 2 G/L (TOTAL DOSE) IN DRINKING WATER FOR 52 WK (STUDY DURATION: 52 WK), Tumor Site: Type of Lesion: LIVER: HEPATOCELLULAR CARCINOMA, ADENOMA, HYPERPLASTIC NODULES): active; positive | carcinogen call (Species: MOUSE, Strain/Sex: B6C3F1/MALE, Route: ORAL, Dose: 0, 2 G/L (TOTAL DOSE) IN DRINKING WATER FOR 37 WK (STUDY DURATION: 52 WK), Tumor Site: Type of Lesion: LIVER: ADENOMA, HYPERPLASTIC NODULES): active; positive | carcinogen call (Species: MOUSE, Strain/Sex: B6C3F1/MALE, Route: ORAL, Dose: 0, 5 G/L (0; 39 MILLIMOLAR) IN DRINKING WATER FOR 61 WK (STUDY DURATION: 61 WK), Dose: 0, 5 G/L (0; 39 MILLIMOLAR) IN DRINKING WATER FOR 61 WK (STUDY DURATION: 61 WK), Tumor Site: Type of Lesion: LIVER: CARCINOMA): active; positive | carcinogen call (Species: RAT, Strain/Sex: F344/MALE, Route: ORAL, Dose: 0, 0.05, 0.5 G/L IN DRINKING WATER FOR 100 WK (STUDY DURATION: 100 WK), Dose: 0, 0.05, 0.5 G/L IN DRINKING WATER FOR 100 WK (STUDY DURATION: 100 WK), Tumor Site: Type of Lesion: LIVER: HEPATOCELLULAR ADENOMA OR CARCINOMA): active; positive | carcinogen call (Species: RAT, Strain/Sex: F344/MALE, Route: ORAL, Dose: 0, 2.5 G/L IN DRINKING WATER DOSE LOWERED TO 1 G/L AFTER 18 WK (STUDY DURATION: 103 WK), Tumor Site: Type of Lesion: LIVER: HEPATOCELLULAR ADENOMA OR CARCINOMA): active; positive

C=CCN(N)CC=C
carcinogen call (Species: MOUSE, Strain/Sex: SWISS/FEMALE, Route: ORAL, Dose: 0.03125% IN DRINKING WATER FOR LIFE, Tumor Site: Type of Lesion: LUNG: ADENOMA, ADENOCARCINOMA): active; positive | carcinogen call (Species: MOUSE, Strain/Sex: SWISS/MALE, Route: ORAL, Dose: 0.03125% IN DRINKING WATER FOR LIFE, Tumor Site: Type of Lesion: LUNG: ADENOMA, ADENOCARCINOMA, FORESTOMACH: SQUAMOUS CELL PAPILLOMA, CARCINOMA): active; positive

CC(N)=O
carcinogen call (Species: RAT, Strain/Sex: WISTAR/MALE, Route: ORAL, Dose: 1.25, 2.5, 5% IN DIET FOR ONE YR, Dose: 1.25, 2.5, 5% IN DIET FOR ONE YR, Tumor Site: Type of Lesion: LIVER: TRABECULAR CARCINOMA, ADENOCARCINOMA, HEPATOMA): active; positive

CCCN(C)N=O
carcinogen call (Species: HAMSTER, Strain/Sex: SYRIAN/FEMALE, Route: GAVAGE, Dose: 0, 2.1 MG/KG 1/WK FOR 23-30 WK (TOTAL DOSE: 0; 0.6 MMOL) (STUDY DURATION: LIFETIME), Dose: 0, 2.1 MG/KG 1/WK FOR 23-30 WK (TOTAL DOSE: 0; 0.6 MMOL) (STUDY DURATION: LIFETIME), Tumor Site: Type of Lesion: LIVER: HEPATOCELLULAR ADENOMA, HEMANGIOSARCOMA, NASAL MUCOSA: CARCINOMA): active; positive | carcinogen call (Species: HAMSTER, Strain/Sex: SYRIAN/MALE,FEMALE, Route: SUBCUTANEOUS, Dose: 12.5, 25, 50 MG/KG 1/WK, Dose: 12.5, 25, 50 MG/KG 1/WK, Tumor Site: Type of Lesion: NASAL CAVITY: CARCINOMA, EPIDERMOID TUMOR, MUCOEPIDERMOID TUMOR, TRACHEA: PAPILLARY POLYP, LUNG: ADENOMA, CARCINOMA, LIV, Tumor Site: Type of Lesion: NASAL CAVITY: CARCINOMA, EPIDERMOID TUMOR, MUCOEPIDERMOID TUMOR, TRACHEA: PAPILLARY POLYP, LUNG: ADENOMA, CARCINOMA, LIV): active; positive | carcinogen call (Species: HAMSTER, Strain/Sex: SYRIAN/MALE, Route: GAVAGE, Dose: 0, 2.1 MG/KG 1/WK FOR 23-30 WK (TOTAL DOSE: 0; 0.6 MMOL) (STUDY DURATION: LIFETIME), Dose: 0, 2.1 MG/KG 1/WK FOR 23-30 WK (TOTAL DOSE: 0; 0.6 MMOL) (STUDY DURATION: LIFETIME), Tumor Site: Type of Lesion: LIVER: HEPATOCELLULAR ADENOMA, HEMANGIOSARCOMA, LUNG: ALVEOLAR/BRONCHIAL ADENOMA, NASAL MUCOSA: CARCINOMA, Tumor Site: Type of Lesion: LIVER: HEPATOCELLULAR ADENOMA, HEMANGIOSARCOMA, LUNG: ALVEOLAR/BRONCHIAL ADENOMA, NASAL MUCOSA: CARCINOMA): active; positive | carcinogen call (Species: MOUSE, Strain/Sex: NMRI/FEMALE, Route: SUBCUTANEOUS, Dose: 0.05, 0.1, 0.2 OF LD50 (77.1 MG/KG) 1/WK FOR LIFE, Dose: 0.05, 0.1, 0.2 OF LD50 (77.1 MG/KG) 1/WK FOR LIFE, Tumor Site: Type of Lesion: NASAL CAVITY: SQUAMOUS CELL PAPILLOMA, SQUAMOUS CELL CARCINOMA, LARYNX: PAPILLOMA, CARCINOMA (IN SITU), SQUAMOUS CELL CA): active; positive

CCCCCN(N=O)C(=O)OCC
carcinogen call (Species: RAT, Strain/Sex: DONRYU/FEMALE, Route: ORAL, Dose: 0, 100, 200, 400 PPM IN DRINKING WATER FOR 60 WK, Dose: 0, 100, 200, 400 PPM IN DRINKING WATER FOR 60 WK, Tumor Site: Type of Lesion: ORAL CAVITY: PAPILLOMA, CARCINOMA, ESOPHAGUS: PAPILLOMA, CARCINOMA, FORESTOMACH: PAPILLOMA, CARCINOMA, Tumor Site: Type of Lesion: ORAL CAVITY: PAPILLOMA, CARCINOMA, ESOPHAGUS: PAPILLOMA, CARCINOMA, FORESTOMACH: PAPILLOMA, CARCINOMA): active; positive
